Literature values as cited in US20050070607A1, “N-acetylcysteine compositions and methods for the treatment and prevention of cysteine/glutathione deficiency in diseases and conditions” (priority 2003, published 2005).

Tests used:
[1] = system: Cystic Fibrosis (CF); settings: air trapping and FEV1; NAC or Ambroxol 200 mg 3 times daily; n 36; 12 weeks; Ratjen 1985[274]
[2] = system: cochlea
[3] = system: chronic renal failure; settings: regular users consuming >=1.4 g/day on average, absence of aspirin use; Fored[184]
[4] = system: human atherosclerosis; settings: brachial artery flow-mediated dilation; 4.5 g OTC po; n 48; 4 hours; Vita 1998[15]
[5] = system: HIV infected individuals; settings: whole blood GSH; OTC 1500-3000 mg/day po; n 37; 4 weeks; Barditch-Crovo 1998[283]
[6] = system: acute lung injury; settings: RBC GSH, days of acute lung injury, cardiac index; NAC 70 mg/kg q 8 hr IV; OTZ 63 mg/kg q 8 hr IV; n 48; 10 days; Bernard 1997[222]

For Nc1c(Br)cc(Br)cc1CN[C@H]1CC[C@H](O)CC1 [Ambroxol], the Beneficial effects [1] is listed as “Beneficial”.
In the case of CSCC[C@H](N)C(=O)O [methionine], the “Hearing loss and cochlear damage from aminoglycoside antibiotics and cisplatin” value ([2]; animal models [245-247]) is listed as “greatly reduced” and the “permanent cochlear damage due to acute acoustic overexposure” value ([2]; animal models, systemic administration [246,248]) is listed as “almost completely prevented”.
In the case of CC(=O)Nc1ccc(O)cc1 [acetaminophen], the “relative risk of chronic renal failure” value [3] is listed as 5.3.
For O=C1N[C@H](C(=O)O)CS1 [OTC, L-2-oxothiazolidine-4-carboxylic acid], the Beneficial effects [4] is listed as “Beneficial” and the Beneficial effects [5] is listed as “Beneficial”.
In the case of O=C1N[C@H](C(=O)O)CS1 [OTZ], the Beneficial effects [6] is listed as “Beneficial”.
